Biological target: adenosine A2A receptor (Homo sapiens, UniProt P29274)
Test: adenosine A2A receptor agonist assay (method of Murphree et al, Molecular Pharmacology 61, 455-462 (2002))
Format: binding
Conditions: method described by L. J. Murphree et al, Mol. Pharmacol. 61, 455-462 (2002)
Description: Compounds of formulae (I) and (II) and their pharmaceutically acceptable salts are useful as pharmaceuticals. In particular, they activate the adenosine A2A receptor, i.e. they act as A2A receptor agonists.

adenosine A2A receptor, sequence (P29274 whole entry): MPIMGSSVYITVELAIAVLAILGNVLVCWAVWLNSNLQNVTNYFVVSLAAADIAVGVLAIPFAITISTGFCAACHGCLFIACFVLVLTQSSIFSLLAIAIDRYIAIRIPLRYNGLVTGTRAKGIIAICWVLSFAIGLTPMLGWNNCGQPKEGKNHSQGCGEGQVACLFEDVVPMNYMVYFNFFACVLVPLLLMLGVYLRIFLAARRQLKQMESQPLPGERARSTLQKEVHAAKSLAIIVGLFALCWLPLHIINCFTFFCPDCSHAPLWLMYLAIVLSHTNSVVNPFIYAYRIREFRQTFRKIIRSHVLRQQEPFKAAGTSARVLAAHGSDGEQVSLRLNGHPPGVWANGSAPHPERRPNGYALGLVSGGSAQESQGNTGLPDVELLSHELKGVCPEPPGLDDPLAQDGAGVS

| Ki [nM] | Structure (SMILES) |
| --- | --- |
| 10 | CCC(=O)N[C@H]1C[C@@H](n2cnc3c(NC(CO)Cc4ccccc4)nc(N4CC[C@@H](NC(=O)N[C@H]5CCN(c6nc(NC(CO)Cc7ccccc7)c7ncn([C@@H]8C[C@H](NC(=O)CC)[C@@H](O)[C@H]8O)c7n6)C5)C4)nc32)[C@H](O)[C@@H]1O (stereo in doubt) [Example 7] |
| 70 | CCC(=O)N[C@H]1C[C@@H](n2cnc3c(NCC(c4ccccc4)c4ccccc4)nc(N4CC[C@@H](NC(=O)NC5CCC(NC(=O)N[C@H]6CCN(c7nc(NCC(c8ccccc8)c8ccccc8)c8ncn([C@@H]9C[C@H](NC(=O)CC)[C@@H](O)[C@H]9O)c8n7)C6)CC5)C4)nc32)[C@H](O)[C@@H]1O (stereo in doubt) [Example 15] |
| 10 | CCC(=O)N[C@H]1C[C@@H](n2cnc3c(NCC(c4ccccc4)c4ccccc4)nc(N4CC[C@@H](NC(=O)N[C@@H]5CCN(c6nc(NCC(c7ccccc7)c7ccccc7)c7ncn([C@@H]8C[C@H](NC(=O)CC)[C@@H](O)[C@H]8O)c7n6)C5)C4)nc32)[C@H](O)[C@@H]1O [Example 1] |
| 60 | CCC(=O)N[C@H]1C[C@@H](n2cnc3c(NCC(c4ccccc4)c4ccccc4)nc(N4CC[C@@H](NC(=O)NS(=O)(=O)N[C@@H]5CCN(c6nc(NCC(c7ccccc7)c7ccccc7)c7ncn([C@@H]8C[C@H](NC(=O)CC)[C@@H](O)[C@H]8O)c7n6)C5)C4)nc32)[C@H](O)[C@@H]1O [Example 19] |
